Patent US10030004B2, “Compounds and methods of use” (Medivation Technologies LLC, priority 2014, dated 2018)
Where two headings read alike, the source gives them in different places.

Tests used:
ALK1 (ACVRL1) = ALK1 (ACVRL1) (Homo sapiens (Human), UniProt P37023); assay: In vitro kinase assay, ALK1; format: biochemical; settings: 10 μM ATP; read-out: Inhibition of ALK1 IC50
ALK2 (ACVR1) = ALK2 (ACVR1) (Homo sapiens (Human), UniProt Q04771); assay: In vitro kinase assay, ALK2; format: biochemical; settings: read-out: Inhibition of ALK2 IC50
ALK3 (BMPR1A) = ALK3 (BMPR1A) (Homo sapiens (Human), UniProt P36894); assay: In vitro kinase assay, ALK3; format: biochemical; settings: 10 μM ATP; read-out: Inhibition of ALK3 IC50
ALK6 (BMPR1B) = ALK6 (BMPR1B) (Homo sapiens (Human), UniProt O00238); assay: In vitro kinase assay, ALK6; format: biochemical
p-SMAD2 = p-SMAD2 inhibition, Western Blot Analysis in TGFβ-stimulated MDA-MB-231 cells; format: cell-based; settings: Homo sapiens, TGFβ 2 ng/mL, triplicate; for inhibition at 0.1 µM: 0.1 μM compound, read-out: Average p-SMAD2 inhibition @ 0.1 μM (% Inh)
[1] = Pharmacokinetics and bioavailability in male mice after a single dose; format: in vivo; settings: for half-life: read-out: Terminal t1/2 (converted)
ALK4 (ACVR1B) = ALK4 (ACVR1B) (Homo sapiens (Human), UniProt P36896); assay: In vitro kinase assay, ALK4; format: biochemical; settings: 10 μM ATP; read-out: Inhibition of ALK4 IC50
ALK5 (TGFBR1) = ALK5 (TGFBR1) (Homo sapiens (Human), UniProt P36897); assay: In vitro kinase assay, ALK5; format: biochemical; settings: 10 μM ATP; read-out: Inhibition of ALK5 IC50
[2] = 10 μM ATP, read-out: Inhibition of ALK6 IC50
[3] = mouse, plasma, intravenous, 2 mg/kg

Chain of ALK1 (ACVRL1) (P37023 22-503): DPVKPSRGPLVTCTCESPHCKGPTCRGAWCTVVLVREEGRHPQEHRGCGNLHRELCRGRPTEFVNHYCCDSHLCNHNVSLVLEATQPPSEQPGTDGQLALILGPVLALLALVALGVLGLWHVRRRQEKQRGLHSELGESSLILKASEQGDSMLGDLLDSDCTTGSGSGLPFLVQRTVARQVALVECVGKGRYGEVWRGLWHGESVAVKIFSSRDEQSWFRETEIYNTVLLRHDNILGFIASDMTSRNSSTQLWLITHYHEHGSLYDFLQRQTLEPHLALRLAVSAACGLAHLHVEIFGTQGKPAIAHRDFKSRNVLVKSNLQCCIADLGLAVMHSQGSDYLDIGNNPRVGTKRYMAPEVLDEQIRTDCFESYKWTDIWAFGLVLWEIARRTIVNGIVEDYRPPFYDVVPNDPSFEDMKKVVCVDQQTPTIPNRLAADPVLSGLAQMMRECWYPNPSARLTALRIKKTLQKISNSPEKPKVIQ
Chain of ALK3 (BMPR1A) (P36894 24-532): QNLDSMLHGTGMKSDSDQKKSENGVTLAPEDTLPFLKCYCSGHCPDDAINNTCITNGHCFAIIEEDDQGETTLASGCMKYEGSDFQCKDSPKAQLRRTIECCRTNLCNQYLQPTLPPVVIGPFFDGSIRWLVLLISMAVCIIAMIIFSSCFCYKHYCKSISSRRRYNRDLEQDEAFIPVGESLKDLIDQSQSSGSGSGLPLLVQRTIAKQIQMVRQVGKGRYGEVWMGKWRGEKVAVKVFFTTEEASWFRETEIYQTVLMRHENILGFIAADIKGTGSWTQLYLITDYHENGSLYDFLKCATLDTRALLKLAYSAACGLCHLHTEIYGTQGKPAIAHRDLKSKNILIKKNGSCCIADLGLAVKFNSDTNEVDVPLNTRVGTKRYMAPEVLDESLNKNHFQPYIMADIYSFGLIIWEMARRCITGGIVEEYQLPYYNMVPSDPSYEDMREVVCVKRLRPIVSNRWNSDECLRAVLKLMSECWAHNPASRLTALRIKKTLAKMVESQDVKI
Chain of ALK2 (ACVR1) (Q04771 21-509): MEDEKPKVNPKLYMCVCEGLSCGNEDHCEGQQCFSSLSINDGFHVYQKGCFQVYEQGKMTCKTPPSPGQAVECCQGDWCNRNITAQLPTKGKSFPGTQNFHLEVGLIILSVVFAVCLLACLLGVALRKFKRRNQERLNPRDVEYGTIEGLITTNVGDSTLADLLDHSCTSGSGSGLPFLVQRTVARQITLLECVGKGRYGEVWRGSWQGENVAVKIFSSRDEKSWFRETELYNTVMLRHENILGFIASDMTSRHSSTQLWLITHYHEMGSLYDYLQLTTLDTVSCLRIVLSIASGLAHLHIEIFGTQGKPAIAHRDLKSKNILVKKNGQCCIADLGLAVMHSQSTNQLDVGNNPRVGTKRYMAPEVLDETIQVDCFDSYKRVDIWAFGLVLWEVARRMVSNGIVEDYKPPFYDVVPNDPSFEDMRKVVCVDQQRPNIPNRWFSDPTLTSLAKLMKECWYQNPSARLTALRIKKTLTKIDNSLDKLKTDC
Chain of ALK6 (BMPR1B) (O00238 14-502): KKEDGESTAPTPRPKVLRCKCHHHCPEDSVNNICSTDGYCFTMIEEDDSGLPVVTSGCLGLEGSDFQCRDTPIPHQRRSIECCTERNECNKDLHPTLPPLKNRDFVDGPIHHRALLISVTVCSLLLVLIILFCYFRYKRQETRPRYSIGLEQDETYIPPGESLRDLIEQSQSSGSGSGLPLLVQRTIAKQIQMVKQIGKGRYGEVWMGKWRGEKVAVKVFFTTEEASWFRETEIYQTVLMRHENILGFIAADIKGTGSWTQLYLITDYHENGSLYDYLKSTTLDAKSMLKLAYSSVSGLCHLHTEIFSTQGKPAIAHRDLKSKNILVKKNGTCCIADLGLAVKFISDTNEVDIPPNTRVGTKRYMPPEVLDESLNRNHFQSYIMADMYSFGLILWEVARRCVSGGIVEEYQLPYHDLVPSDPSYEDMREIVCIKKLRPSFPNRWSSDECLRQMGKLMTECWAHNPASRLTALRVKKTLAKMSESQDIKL
Chain of ALK4 (ACVR1B) (P36896 24-505): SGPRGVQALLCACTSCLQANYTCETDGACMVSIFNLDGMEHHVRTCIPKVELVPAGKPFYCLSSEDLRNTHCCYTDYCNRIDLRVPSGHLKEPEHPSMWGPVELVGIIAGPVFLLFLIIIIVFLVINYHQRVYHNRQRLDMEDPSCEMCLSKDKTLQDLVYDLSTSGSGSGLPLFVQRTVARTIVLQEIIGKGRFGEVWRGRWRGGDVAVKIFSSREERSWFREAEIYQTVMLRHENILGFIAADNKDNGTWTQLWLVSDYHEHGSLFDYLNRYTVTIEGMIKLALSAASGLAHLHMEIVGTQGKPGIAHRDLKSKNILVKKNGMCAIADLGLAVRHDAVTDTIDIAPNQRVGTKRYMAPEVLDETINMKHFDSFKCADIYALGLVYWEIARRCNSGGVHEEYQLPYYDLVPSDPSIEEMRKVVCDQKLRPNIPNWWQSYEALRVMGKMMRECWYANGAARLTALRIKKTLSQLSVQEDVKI
Chain of ALK5 (TGFBR1) (P36897 34-503): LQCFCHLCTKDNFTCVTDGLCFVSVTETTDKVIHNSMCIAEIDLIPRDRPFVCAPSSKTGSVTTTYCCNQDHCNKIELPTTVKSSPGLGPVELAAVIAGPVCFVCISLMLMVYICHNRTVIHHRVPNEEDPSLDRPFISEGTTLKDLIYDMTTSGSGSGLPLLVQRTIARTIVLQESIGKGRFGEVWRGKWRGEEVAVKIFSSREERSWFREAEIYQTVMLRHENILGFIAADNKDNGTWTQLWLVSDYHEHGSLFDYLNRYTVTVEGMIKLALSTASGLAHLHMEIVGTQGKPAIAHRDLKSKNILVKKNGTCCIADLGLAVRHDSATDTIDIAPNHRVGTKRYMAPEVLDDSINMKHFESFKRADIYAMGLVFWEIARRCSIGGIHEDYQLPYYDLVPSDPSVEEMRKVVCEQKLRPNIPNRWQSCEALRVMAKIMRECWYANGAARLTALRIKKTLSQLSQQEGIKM

IC50 (ALK6 (BMPR1B); [2]) | Structure (SMILES) | IC50 (ALK1 (ACVRL1)) | IC50 (ALK2 (ACVR1); 10 μM ATP) | IC50 (ALK3 (BMPR1A)) | other results
> 1000 µM | CC(C)c1cnc(-c2ccccc2)cc1Nc1ccncc1C(=O)NC[C@H](C)O [compound 28, N-(2-hydroxypropyl)-4-[(5-isopropyl-2-phenyl-4-pyridyl)amino]pyridine-3-carboxamide] | > 100 µM | > 1000 µM | > 1000 µM | 
 | C=Cc1cnc(-c2cc(Cl)ccc2F)cc1Nc1ccncc1C(=O)NC[C@H](C)O [10a, (S)-4-(2-(5-chloro-2-fluorophenyl)-5-vinylpyridin-4-ylamino)-N-(2-hydroxypropyl)nicotinamide] |  |  |  | inhibition at 0.1 µM (p-SMAD2): 0%
> 10 µM | C[C@H](O)CNC(=O)c1cnccc1Nc1cc(-c2cc(Cl)ccc2F)ncc1C1CC1 [compound 31, 4-{[2-(5-chloro-2-fluorophenyl)-5-cyclopropylpyridin-4-yl]amino}-N-[(2S)-2-hydroxypropyl]pyridine-3-carboxamide] | > 10 µM | > 10 µM | > 10 µM | 
 | C=C(C)c1cnc(-c2cc(Cl)ccc2F)cc1Nc1ccncc1C(=O)NC(C)(C)CO [compound 8, 4-[[2-(5-chloro-2-fluoro-phenyl)-5-isopropenyl-4-pyridyl]amino]-N-(2-hydroxy-1,1-dimethyl-ethyl)pyridine-3-carboxamide] | > 100 µM |  | > 100 µM | IC50 (ALK2 (ACVR1)): > 100 µM; V ([1]; intravenous, 2 mg/kg): 14.9 L/kg; AUC(0-t) [1, 3]: 0.709 µM·h; Cmax [1, 3]: 1240 nM; clearance [1, 3]: 103 mL/min/kg; half-life [1, 3]: 1.68 h; AUC(0-t) ([1]; mouse, plasma, oral, 10 mg/kg): 1.31 µM·h; Cmax ([1]; mouse, plasma, oral, 10 mg/kg): 1060 nM; Tmax ([1]; mouse, plasma, oral, 10 mg/kg): 0.25 h; bioavailability ([1]; mouse, plasma, oral, 10 mg/kg): 36.9%; half-life ([1]; mouse, plasma, oral, 10 mg/kg): 1.26 h
 | CC(C)c1cnc(-c2cc(Cl)ccc2F)cc1Nc1ccncc1C(=O)N1CCC(O)CC1 [compound 9, [4-[[2-(5-chloro-2-fluoro-phenyl)-5-isopropyl-4-pyridyl]amino]-3-pyridyl]-(4-hydroxy-1-piperidyl)methanone] |  |  |  | inhibition at 0.1 µM (p-SMAD2): 6%; inhibition at 0.5 µM (p-SMAD2; 0.5 μM compound, read-out: Average p-SMAD2 inhibition @ 0.5 μM (% Inh)): 12.7%
 | CC(O)CNC(=O)c1c[nH]nc1Nc1cc(-c2cc(Cl)ccc2F)ncc1C(C)C (single isomer, unassigned) [21a, 3-[[2-(5-chloro-2-fluoro-phenyl)-5-isopropyl-4-pyridyl]amino]-N-(2-hydroxypropyl)-1H-pyrazole-4-carboxamide] | > 100 µM | > 1000 µM | > 1000 µM | IC50 (ALK4 (ACVR1B)): > 1000 µM; IC50 (ALK5 (TGFBR1)): > 100 µM; IC50 (ALK6 (BMPR1B)): > 1000 µM

Structure (SMILES) | IC50 (ALK6 (BMPR1B); [2]) | IC50 (ALK1 (ACVRL1)) | IC50 (ALK2 (ACVR1); 10 μM ATP) | IC50 (ALK3 (BMPR1A)) | other results
C=C(C)c1cnc(-c2cc(Cl)ccc2F)cc1Nc1ccncc1C(=O)N[C@@H](CC)CO (single isomer, unassigned) [24a] | > 100 µM | > 100 µM | > 100 µM | > 100 µM | 
